From patent US20110098352A1, “N,N-DISUBSTITUTED AMINOALKYLBIPHENYL ANTAGONISTS OF PROSTAGLANDIN D2 RECEPTORS” (AMIRA PHARMACEUTICALS, INC., priority 2008, published 2011)
Like-named read-outs stand apart in the source and are kept apart here.

Legend:
[1] = molecular target: T1, human DP2 receptor (Homo sapiens, UniProt Q9Y5Y4); assay: DP2/CRTH2 radioligand binding assay using [3H]PGD2
T1 construct: expressed in transfected cells
T1 sequence (Q9Y5Y4 1-395): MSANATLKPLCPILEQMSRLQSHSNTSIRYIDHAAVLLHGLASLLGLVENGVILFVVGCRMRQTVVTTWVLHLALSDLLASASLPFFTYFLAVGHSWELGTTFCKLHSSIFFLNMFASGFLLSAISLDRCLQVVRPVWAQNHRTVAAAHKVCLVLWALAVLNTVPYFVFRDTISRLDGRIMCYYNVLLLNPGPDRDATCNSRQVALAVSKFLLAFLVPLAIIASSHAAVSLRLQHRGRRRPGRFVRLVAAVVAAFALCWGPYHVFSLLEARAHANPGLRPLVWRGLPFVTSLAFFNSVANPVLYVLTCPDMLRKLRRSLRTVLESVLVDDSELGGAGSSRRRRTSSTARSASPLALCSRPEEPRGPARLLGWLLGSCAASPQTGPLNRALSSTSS
Protocol: The ability of a compound to bind to the human DP2 receptor is assessed via a radioligand binding assay using [^3H]PGD2. HEK293 cells stably expressing recombinant human DP2 are resuspended in 10 mM Hepes, 7.4 containing 1 mM DTT, lysed and centrifuged at 75,000×g to pellet the membranes. The membranes are resuspended in 10 mM Hepes, 7.4 containing 1 mM DTT and 10% glycerol to approximately 5 mg protein/ml. Membranes (2-10 μg protein/well) are incubated in 96-well plates with 1 nM [^3H]PGD2 and test compound in Assay Buffer (50 mM Hepes, 10 mM MnCl2, 1 mM EDTA, plus or minus 0.2% human serum albumin, pH 7.4) for 60 minutes at room temperature. The reactions are terminated by rapid filtration through Whatman GF/C glass fibre filter plates. The filter plates were pre-soaked in 0.33% polythylenimine for 30 minutes at room temperature then washed in Wash Buffer (50 mM Hepes, 0.5 M NaCl pH 7.4) prior to harvesting. After harvesting, the filter plates are washed 3 times with 1 ml cold Wash Buffer then dried. Scintillant is then added to the plates and the radioactivity retained on the filters is determined on a Packard TopCount (Perkin Elmer). Specific binding is determined as total radioactive binding minus non-specific binding in the presence of 10 μM PGD2. IC50s were determined using GraphPad prism analysis of drug titration curves.

[2] = molecular target: T2, human DP1 receptor (Homo sapiens, UniProt Q13258); assay: DP1 radioligand membrane binding assay using [3H]BWA868C; conditions: [3H]BWA868C binding, human platelet membranes; read-out: hDP1
T2 construct: tissue Biological Specialty Corporation; host or cells: human platelets, membranes
T2 sequence (Q13258 1-359): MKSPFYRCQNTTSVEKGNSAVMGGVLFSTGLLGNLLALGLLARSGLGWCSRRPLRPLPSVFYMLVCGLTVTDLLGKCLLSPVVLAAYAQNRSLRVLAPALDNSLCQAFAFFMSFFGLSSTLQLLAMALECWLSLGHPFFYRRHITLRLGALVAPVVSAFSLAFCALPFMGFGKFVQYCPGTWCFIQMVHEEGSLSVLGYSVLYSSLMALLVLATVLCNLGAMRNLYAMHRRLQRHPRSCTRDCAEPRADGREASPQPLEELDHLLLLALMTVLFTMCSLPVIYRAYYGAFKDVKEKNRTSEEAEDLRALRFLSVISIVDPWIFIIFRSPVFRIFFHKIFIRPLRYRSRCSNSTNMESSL
Protocol: The ability of a compound to bind to the human DP1 receptor was evaluated via a radioligand membrane binding assay using the DP1 selective synthetic ligand [^3H]BWA868C. Packed human platelets (Biological Specialty Corporation), were resuspended in 6 volumes of Hepes/HBSS buffer (10 mM Hepes, 1 mM DTT in Hanks Balanced Salt Solution (HBSS)), lysed and centrifuged at 75,000×g to pellet the membranes. Membranes were resuspended in Hepes/HBSS buffer to approximately 12 mg protein/ml. Membranes (20 μg protein/well) are incubated in 96-well plates with 2 nM [^3H]BWA868C and test compound in Assay Buffer (50 mM Hepes, 10 mM MnCl2, 1 mM EDTA, plus or minus 0.2% human serum albumin, pH 7.4) for 60 minutes at room temperature. The reactions are terminated by rapid filtration through Whatman GF/C glass fibre filter plates. The filter plates were pre-soaked in […] polethylenimine for 30 minutes at room temperature then washed in Wash Buffer (50 mM Hepes, 0.5 M NaCl pH 7.4) prior to harvesting. After harvesting, the filter plates are washed 3 times with 1 ml cold Wash Buffer then dried. Scintillant is then added to the plates and the radioactivity retained on the filters is determined on a Packard TopCount (Perkin Elmer). Specific binding is determined as total radioactive binding minus non-specific binding in the presence of 10 μM BWA868C. IC50s were determined using GraphPad prism analysis of drug titration curves.

[3] = [3H]PGD2 binding, membranes of HEK293 cells expressing recombinant human DP2, read-out: hDP2

Structure (SMILES)	IC50 [1, 3] [µM]	IC50 [2] [µM]	IC50 [1] [µM]
CCN(Cc1cc(C(F)(F)F)ccc1-c1cc(CC(=O)O)ccc1OC)C(=O)NCc1ccc(Cl)c(Cl)c1 [Compound 1-152, {2′-[3-(3,4-Dichloro-benzyl)-1-ethyl-ureidomethyl]-6-methoxy-4′-trifluoromethyl-biphenyl-3-yl}-acetic acid]	< 0.3	> 1	
CCN(Cc1cc(C(F)(F)F)ccc1-c1cc(CC(=O)O)ccc1OC)C(=O)C(C)(C)C [Compound 1-245, (2′-{[(2,2-Dimethyl-propionyl)-ethyl-amino]-methyl}-6-methoxy-4′-trifluoromethyl-biphenyl-3-yl)-acetic acid]	> 1		
CCN(Cc1cc(F)ccc1-c1cc(CC(=O)O)ccc1OC)C(=O)NCc1ccc(Cl)cc1 [Compound 1-185, {2′-[3-(4-Chloro-benzyl)-1-ethyl-ureidomethyl]-4′-fluoro-6-methoxy-biphenyl-3-yl}-acetic acid]	< 0.3	> 1	
CCN(Cc1cc(C(F)(F)F)ccc1-c1cc(CC(=O)O)ccc1OC)C(=O)C1CC1 [Compound 1-33, {2′-[(Cyclopropanecarbonyl-ethyl-amino)-methyl]-6-methoxy-4′-trifluoromethyl-biphenyl-3-yl}-acetic acid]		> 1	< 0.3
CCN(Cc1cc(F)ccc1-c1cc(CC(=O)O)ccc1OC)C(=O)OCc1ccccc1 [Compound 1-183, {2′-[(Benzyloxycarbonyl-ethyl-amino)-methyl]-4′-fluoro-6-methoxy-biphenyl-3-yl}-acetic acid]	< 0.3	> 1	
COc1ccc(CC(=O)O)cc1-c1ccc(C(F)(F)F)cc1CN(C(=O)OCc1ccccc1)C1CCC1 [Compound 1-34, {2′-[(Benzyloxycarbonyl-cyclobutyl-amino)-methyl]-6-methoxy-4′-trifluoromethyl-biphenyl-3-yl}-acetic acid]		> 1	
CCN(Cc1cc(C(F)(F)F)ccc1-c1cc(CC(=O)O)ccc1OC)C(=O)NCc1ccc(F)cc1 [Compound 1-176, {2′-[1-Ethyl-3-(4-fluoro-benzyl)-ureidomethyl]-6-methoxy-4′-trifluoromethyl-biphenyl-3-yl}-acetic acid]	< 0.3	> 1	
CCN(Cc1cc(S(C)(=O)=O)ccc1-c1cc(CC(=O)O)ccc1OC)C(=O)OCc1ccccc1 [Compound 1-215, {2′-[(Benzyloxycarbonyl-ethyl-amino)-methyl]-4′-methanesulfonyl-6-methoxy-biphenyl-3-yl}-acetic acid]	< 0.3		
CCN(Cc1cc(C(F)(F)F)ccc1-c1cc(CC(=O)O)ccc1OC)C(=O)NCc1cccc(Cl)c1 [Compound 1-177, {2′-[3-(3-Chloro-benzyl)-1-ethyl-ureidomethyl}-6-methoxy-4′-trifluoromethyl-biphenyl-3-yl}-acetic acid]	< 0.3	> 1	
CCN(Cc1cc(C(F)(F)F)ccc1-c1cccc(CC(=O)O)c1)C(=O)C1CC1 [Compound 1-244, {2′-[(Cyclopropanecarbonyl-ethyl-amino)-methyl]-4′-trifluoromethyl-biphenyl-3-yl}-acetic acid]	< 0.3		
CCN(Cc1cc(C(F)(F)F)ccc1-c1cc(CC(=O)O)ccc1OC)C(=O)C1CCC1 [Compound 1-206, {2′-[(Cyclobutanecarbonyl-ethyl-amino)-methyl]-6-methoxy-4′-trifluoromethyl-biphenyl-3-yl}-acetic acid]	< 0.3		
CCN(Cc1cc(C(F)(F)F)ccc1-c1cc(CC(=O)O)ccc1OC)C(=O)NCc1cccc(O)c1 [Compound 1-257, {2′-[1-Ethyl-3-(3-hydroxy-benzyl)-ureidomethyl]-6-methoxy-4′-trifluoromethyl-biphenyl-3-yl}-acetic acid]	< 0.3		
COc1ccc(CC(=O)O)cc1-c1ccc(C(=O)O)cc1CN(CC(F)(F)F)C(C)=O [Compound 1-37, 2-{[Acetyl-(2,2,2-trifluoro-ethyl)-amino]-methyl}-5′-carboxymethyl-2′-methoxy-biphenyl-4-carboxylic acid]	> 1	> 1	
CCN(Cc1cc(C(F)(F)F)ccc1-c1cc(CC(=O)O)ccc1OC)C(=O)OCc1cc(Cl)cc(Cl)c1 [Compound 1-38, (2′-{[(3,5-Dichloro-benzyloxycarbonyl)-ethyl-amino]-methyl}-6-methoxy-4′-trifluoromethyl-biphenyl-3-yl)-acetic acid]		> 1	
COc1ccc(CC(=O)O)cc1-c1ccc(C(F)(F)F)cc1CN(C(=O)OCc1ccccc1)C1CC1 [Compound 1-36, {2′-[(Benzyloxycarbonyl-cyclopropyl-amino)-methyl]-6-methoxy-4′-trifluoromethyl-biphenyl-3-yl}-acetic acid]		> 1	
CCN(Cc1cc(SC)ccc1-c1cc(CC(=O)O)ccc1OC)C(=O)C1CC1 [Compound 1-241, {2′-[(Cyclopropanecarbonyl-ethyl-amino)-methyl]-6-methoxy-4′-methylsulfanyl-biphenyl-3-yl}-acetic acid]	< 0.3		
CCN(Cc1cc(C(F)(F)F)ccc1-c1cc(CC(=O)O)ccc1OC)C(=O)NCc1ccccc1O [Compound 1-253, {2′-[1-Ethyl-3-(2-hydroxy-benzyl)-ureidomethyl]-6-methoxy-4′-trifluoromethyl-biphenyl-3-yl}-acetic acid]	< 0.3		
CCN(Cc1cc(C(C)(C)O)ccc1-c1cc(CC(=O)O)ccc1OC)C(=O)OCc1ccccc1 [Compound 1-216, [2′-[(Benzyloxycarbonyl-ethyl-amino)-methyl]-4′-(1-hydroxy-1-methyl-ethyl)-6-methoxy-biphenyl-3-yl]-acetic acid]	< 0.3		
CCN(Cc1cc(C(=O)O)ccc1-c1cc(CC(=O)O)ccc1OC)C(=O)OCc1ccccc1 [Compound 1-226, 2-[(Benzyloxycarbonyl-ethyl-amino)-methyl]-5′-carboxymethyl-2′-methoxy-biphenyl-4-carboxylic acid]	< 0.3		
CCN(Cc1cc(C(F)(F)F)ccc1-c1cc(CC(=O)O)ccc1OC)C(=O)OCc1ccc(F)cc1 [Compound 1-41, (2′-{[Ethyl-(4-fluoro-benzyloxycarbonyl)-amino]-methyl}-6-methoxy-4′-trifluoromethyl-biphenyl-3-yl)-acetic acid]		> 1	
CCN(Cc1cc(C(F)(F)F)ccc1-c1cc(CC(=O)O)ccc1OC)C(=O)NCc1ccc(O)cc1 [Compound 1-252, {2′-[1-Ethyl-3-(4-hydroxy-benzyl)-ureidomethyl]-6-methoxy-4′-trifluoromethyl-biphenyl-3-yl}-acetic acid]	< 0.3		
CCN(Cc1cc(C(F)(F)F)ccc1-c1cc(CC(=O)O)ccc1OC)C(=O)OCc1ccccc1 [Compound 1-28, {2′-[(Benzyloxycarbonyl-ethyl-amino)-methyl]-6-methoxy-4′-trifluoromethyl-biphenyl-3-yl}-acetic acid]		> 1	
CCN(Cc1cc(Br)ccc1-c1cc(CC(=O)O)ccc1OC)C(=O)C1CC1 [Compound 1-247, {4′-Bromo-2′-[(cyclopropanecarbonyl-ethyl-amino)-methyl]-6-methoxy-biphenyl-3-yl}-acetic acid]	< 0.3		
